Test results taken from patent US8287845B2, “Hair-binding peptides” (E I du Pont de Nemours and Company, priority 2008, dated 2012).

Details: biotinylated peptide in TBST with 1 mg/mL BSA, 1 hour at room temperature, streptavidin-HRP/TMB, A450; MB50 calculated from Scatchard plots
Method: The MB50 provides an indication of the strength of the binding interaction or affinity of the components of the complex.
Then, the streptavidin-horseradish peroxidase (HRP) conjugate (Pierce Chemical Co., Rockford, Ill.) was added to each well (1.0 μg per well), and incubated for 1 h at room temperature, followed by 6 times of washes with TBST. […] The results were plotted as A450 versus the concentration of peptide using GraphPad Prism 4.0 (GraphPad Software, Inc., San Diego, Calif.).

Substance	MB50
SLRRRWTTFGKILRRWTLPTAMLLVMM-K(biotin)-NH2 [CXH-W4]	21 nM
RRSMSLRMLTRGIKWSAMAYLASRWIL-K(biotin)-NH2 [CXH-W3]	72 nM
